From ChEMBL document CHEMBL2062379, “Cleavage mechanism and anti-tumor activity of 3,6-epidioxy-1,10-bisaboladiene isolated from edible wild plants” (Bioorg Med Chem, 2012)
One block for each compound: values may come before it. The source made the active and inactive calls. The calls are words filed in the database; no cut-off is given here.

Columns and labels:
Saccharomyces cerevisiae [1] = assay: Growth restoration activity in cdc2-1 rad9-deficient Saccharomyces cerevisiae assessed as growth zone at 5 ug/disc incubated at 37 degC for 6 hrs and 28 degC for 2 days; format: functional, organism-based
HL-60 [2] = assay: Cytotoxicity against human HL60 cells at 80 uM after 48 hrs by MTT assay; format: functional, cell-based
HL-60 [3] = assay: Cytotoxicity against human HL60 cells after 48 hrs by MTT assay in absence of DFOM; format: functional, cell-based; details: HL-60, 48 h
HL-60 [4] = assay: Induction of apoptosis in human HL60 cells assessed as caspase 9 activation at 200 uM after 1 hrs by spectrophotometric analysis; format: functional, cell-based
[5] = Drug metabolism in buffer at pH 8 after 24 hrs by HPLC analysis in presence of […]; format: physicochemical; details: pH 8, 24 h
Saccharomyces cerevisiae [6] = assay: Growth restoration activity in cdc2-1 rad9-deficient Saccharomyces cerevisiae assessed as growth zone at 400 ug/disc; format: functional, organism-based
HL-60 [7] = assay: Cytotoxicity against human HL60 cells after 48 hrs by MTT assay in presence of DFOM; format: functional, cell-based; details: HL-60, 48 h
HL-60 [8] = assay: Induction of apoptosis in human HL60 cells assessed as caspase 8 activation at 200 uM after 1 hrs by spectrophotometric analysis; format: functional, cell-based
HL-60 [9] = assay: Cytotoxicity against human HL60 cells after 48 hrs by MTT assay; format: functional, cell-based; details: HL-60, 48 h
HL-60 [10] = assay: Induction of apoptosis in human HL60 cells assessed as caspase 3/7 activation at 200 uM after 1 hrs by spectrophotometric analysis; format: functional, cell-based
Saccharomyces cerevisiae [11] = assay: Growth restoration activity in cdc2-1 rad9-deficient Saccharomyces cerevisiae assessed as growth zone at 10 ug/disc incubated at 37 degC for 6 hrs and 28 degC for 2 days; format: functional
Saccharomyces cerevisiae [12] = assay: Growth restoration activity in cdc2-1 rad9-deficient Saccharomyces cerevisiae assessed as growth zone at 0.05 ug/disc incubated at 37 degC for 6 hrs and 28 degC for 2 days; format: functional
HL-60 [13] = assay: Induction of apoptosis in human HL60 cells assessed as caspase 3/7 activation at 1 uM after 12 hrs by spectrophotometric analysis; format: functional, cell-based
OVCAR-3 = assay: Growth inhibition of human OVCAR3 cells; format: functional
MDA-MB-231 = assay: Growth inhibition of human MDA-MB-231 cells; format: functional
HL-60 [14] = assay: Induction of apoptosis in human HL60 cells assessed as caspase 9 activation at 1 uM after 12 hrs by spectrophotometric analysis; format: functional, cell-based
DMS-114 = assay: Growth inhibition of human DMS114 cells; format: functional
HL-60 [15] = assay: Induction of apoptosis in human HL60 cells assessed as caspase 3/7 activation after 1 to 3 hrs by spectrophotometric analysis; format: functional, cell-based
KM12 = assay: Growth inhibition of human KM12 cells; format: functional
HL-60 [16] = assay: Induction of apoptosis in human HL60 cells assessed as caspase 8 activation after 1 to 3 hrs by spectrophotometric analysis; format: functional, cell-based
HCT-116 = assay: Growth inhibition of human HCT116 cells; format: functional
ACHN = assay: Growth inhibition of human ACHN cells; format: functional
SF-268 = assay: Growth inhibition of human SF268 cells; format: functional
HCT-15 = assay: Growth inhibition of human HCT15 cells; format: functional
PC-3 = assay: Growth inhibition of human PC3 cells; format: functional
[17] = Growth inhibition of human BSY1 cells; format: functional; details: BSY-1
MKN-7 = assay: Growth inhibition of human MKN7 cells; format: functional
NCI-H522 = assay: Growth inhibition of human NCI-H522 cells; format: functional
[18] = Growth inhibition of human MKN1 cells; format: functional; details: MKN-1
DMS-273 = assay: Growth inhibition of human DMS273 cells; format: functional
[19] = Growth inhibition of human RXF631L cells; format: functional; details: RXF 631
LOX IMVI = assay: Growth inhibition of human LOXIMVI cells; format: functional
[20] = Growth inhibition of human HBC5 cells; format: functional
SF-539 = assay: Growth inhibition of human SF539 cells; format: functional
U-251 = assay: Growth inhibition of human U251 cells; format: functional
HL-60 [21] = assay: Induction of apoptosis in human HL60 cells assessed as caspase 9 activation after 1 to 3 hrs by spectrophotometric analysis; format: functional, cell-based
OVCAR-4 = assay: Growth inhibition of human OVCAR4 cells; format: functional
SNB-78 = assay: Growth inhibition of human SNB78 cells; format: functional
MKN-28 = assay: Growth inhibition of human MKN28 cells; format: functional
OVCAR-8 = assay: Growth inhibition of human OVCAR8 cells; format: functional
A549 = assay: Growth inhibition of human A549 cells; format: functional
SNB-75 = assay: Growth inhibition of human SNB75 cells; format: functional
HCC 2998 = assay: Growth inhibition of human HCC2998 cells; format: functional
NCI-H460 = assay: Growth inhibition of human NCI-H460 cells; format: functional
OVCAR-5 = assay: Growth inhibition of human OVCAR5 cells; format: functional
MCF7 = assay: Growth inhibition of human MCF7 cells; format: functional
Saccharomyces cerevisiae [22] = assay: Growth restoration activity in cdc2-1 rad9-deficient Saccharomyces cerevisiae assessed as growth zone at 12.5 to 400 ug/disc incubated at 37 degC for 6 hrs and 28 degC for 2 days; format: functional, organism-based
SF-295 = assay: Growth inhibition of human SF295 cells; format: functional
[23] = Growth inhibition of human HBC4 cells; format: functional
HL-60 [24] = assay: Induction of apoptosis in human HL60 cells assessed as caspase 8 activation at 1 uM after 12 hrs by spectrophotometric analysis; format: functional, cell-based
HT-29 = assay: Growth inhibition of human HT-29 cells; format: functional
SK-OV-3 = assay: Growth inhibition of human SKOV3 cells; format: functional
MKN-74 = assay: Growth inhibition of human MKN74 cells; format: functional
NCI-H23 = assay: Growth inhibition of human NCI-H23 cells; format: functional
NCI-H226 = assay: Growth inhibition of human NCI-H226 cells; format: functional
HL-60 [25] = assay: Ratio of IC50 for human HL60 cells in presence of DFOM to IC50 for human HL60 cells in absence of DFOM; format: functional
St-4 = assay: Growth inhibition of human St-4 cells; format: functional
DU-145 = assay: Growth inhibition of human DU145 cells; format: functional
MKN-45 = assay: Growth inhibition of human MKN45 cells; format: functional

SMILES: CC(C)=CCCC(C)[C@@]12CC[C@]3(C)O[C@@H]3[C@@H]1O2 (relative stereo)
Activity (Saccharomyces cerevisiae [1]): inactive
Activity (HL-60 [2]): inactive

Drug metabolism [5]: Not Active
SMILES: CC(C)=CCC[C@@H](C)c1ccc(C)cc1
IC50 (HL-60 [3]): 107 µM
Activity (HL-60 [4]): Active
Activity (Saccharomyces cerevisiae [6]): inactive
IC50 (HL-60 [7]): 147 µM
Activity (HL-60 [8]): Active
IC50 (HL-60 [9]): 109 µM
Activity (HL-60 [10]): Active

SMILES: NC(=O)NO [HYDROXYUREA]
Activity (Saccharomyces cerevisiae [11]): 14.3 mm

SMILES: COc1c(C)c2c(c(O)c1C/C=C(\C)CCC(=O)O)C(=O)OC2 [MYCOPHENOLIC ACID]
Activity (Saccharomyces cerevisiae [12]): 18.5 mm

GI50 (OVCAR-3): 10.2 µM
GI50 (MDA-MB-231): 19.1 µM
GI50 (HCT-116): 1.35 µM
GI50 (ACHN): 7.08 µM
GI50 (HCT-15): 0.912 µM
GI50 (PC-3): 3.16 µM
GI50 (MKN-7): 3.02 µM
GI50 (NCI-H522): 2.29 µM
GI50 (U-251): 3.31 µM
GI50 (OVCAR-4): 12.9 µM
GI50 (MKN-28): 4.57 µM
GI50 (OVCAR-8): 4.17 µM
GI50 (A549): 15.5 µM
GI50 (HCC 2998): 14.8 µM
GI50 (NCI-H460): 7.41 µM
GI50 (OVCAR-5): 12.9 µM
GI50 (MCF7): 6.17 µM
GI50 (HT-29): 4.37 µM
GI50 (SK-OV-3): 10.2 µM
GI50 (MKN-74): 3.98 µM
GI50 (NCI-H23): 6.17 µM
GI50 (NCI-H226): 15.8 µM
GI50 (DU-145): 18.6 µM
GI50 (MKN-45): 5.25 µM
SMILES: C[C@H]1[C@@H](O)O[C@@H]2O[C@@]3(C)CC[C@H]4[C@H](C)CC[C@@H]1[C@@]24OO3 [ARTENIMOL]
Activity (HL-60 [13]): Active
IC50 (HL-60 [3]): 0.18 µM
Activity (HL-60 [14]): Active
GI50 (DMS-114): 1.58 µM
Activity (HL-60 [15]): Dose-dependent effect
GI50 (KM12): 6.03 µM
Activity (HL-60 [16]): Dose-dependent effect
Activity (Saccharomyces cerevisiae [6]): inactive
IC50 (HL-60 [7]): > 20 µM
GI50 (SF-268): 20.9 µM
GI50 [17]: 11.2 µM
GI50 [18]: 3.89 µM
GI50 (DMS-273): 4.47 µM
GI50 [19]: 25.7 µM
GI50 (LOX IMVI): 3.16 µM
GI50 [20]: 5.37 µM
GI50 (SF-539): 9.77 µM
Activity (HL-60 [21]): Dose-dependent effect
GI50 (SNB-78): 8.32 µM
GI50 (SNB-75): 11.7 µM
Activity (Saccharomyces cerevisiae [22]): inactive
GI50 (SF-295): 15.5 µM
GI50 [23]: 2.04 µM
Activity (HL-60 [24]): Active
IC50 (HL-60 [9]): 0.26 µM
Ratio IC50 (HL-60 [25]): >100
GI50 (St-4): 5.37 µM
